Entries after “also recorded” stand apart in the source; their conditions may differ.
What was measured:
PARP = assay: Western blot of cell death targets; assay type: cell-based, human; conditions: 1 μM, 24 h, HL-60
Description: Apoptosis was further characterized by the western blot analysis. Cells were treated with tested compounds at 1 μM for 24 h and expression of key apoptotic proteins like NF-kB, survivin; PARP, Bcl-2 and HSP-90 were analyzed through western blot. Both NF-kB and survivin are highly expressed in HL-60 cells. NF-kB is a transcriptional factor regulating the expression of several genes in the cells whereas survivin is a cell cycle regulated inhibitor of apoptosis protein (IAP), mostly over expressed in most of the tumors.
During apoptotic stimuli activated caspase-3 appears to cause DNA fragmentation through activation of caspase activated DNAse (CAD) in the nucleus of the cells. […] Cancer cells have very high level of heat shock proteins. These are molecular chaperones expressed constitutively under normal conditions to maintain protein homeostasis and are induced upon environmental stress.

topoisomerase II = assay: DNA topoisomerase-II inhibition assay; assay type: biochemical; conditions: 1 μM; etoposide 100 μM
Source text: DNA topoisomerases are nuclear enzymes capable of resolving the topology of DNA to allow its replication. So, proper relaxing is very important for successful replication cycle and thus for the cell survival. However, topoisomerases also serve as targets in the anticancer chemotherapy in which cell death serves an important purpose. Moreover, the topoisomerase targeting drugs can either be classified either topo posions, which act by stabilizing enzyme DNA cleavable complexes leading to DNA break or topo catalytic inhibitors, which act by stabilizing enzyme where both DNA strands remain intact and no DNA breaks occur. Importantly, all the topoisomerase inhibitors finally induce apoptosis. In the present study, all the five compounds 4-8 were first subjected to topoisomerase II inhibition assay.

HL-60 = assay: Fluorescent microscopic (DAPI) analysis of cell death; assay type: cell-based, human; conditions: HL-60, 1 μM, 24 h, data not shown
Description: (§1) The mechanism of cell death was also studied in HL-60 and PC-3 cells by fluorescent microscopic studies. The PC-3 cells were treated with compd. 8 as in case of HL-60 cells. For fluorescent DAPI staining, air dried smears of cells on glass slides were fixed in absolute methanol at −20° C. for 20 min and stained with DAPI (Sigma) at 1 μg/ml at room temperature for 20 min in the dark and mounted with 90% glycerol in PBS and observed under fluorescent microscope (Olympus).
(§2) Morphological changes of HL-60 and PC-3 cells in response to this compound 8 were observed. The untreated cells were having large sized nuclei.

PC-3 cells = assay: as above; assay type: cell-based, human; conditions: PC-3, 1 μM, 24 h
Description: as §1, §2

[1] = system: Ehrlich Ascites Carcinoma (EAC); assay: In vivo anticancer activity, Ehrlich ascites carcinoma; set-up: species or system Swiss mice; conditions: for No. of deaths / toxicity to animals: EAC mice
Description: Model: Ehrlich Ascites Carcinoma (EAC)
Ehrlich ascites carcinoma (EAC) cells were collected from the peritoneal cavity of the swiss mice harbouring 8-10 days old ascitic tumor. 1×10^7 EAC cells were injected intraperitoneally in Swiss mice selected for the experiment on day 0. The next day, animals were randomized and divided into different groups. The treatment groups contained 7 animals each and control group contained 10 animals. Treatment groups were treated with different doses of test substances intraperitoneally from day 1-9. One of the treatment group received 5-fluorouracil (20 mg/kg, i.p) and it served as positive control. The tumor bearing control group was similarly administered normal saline (0.2 ml, i.p.). On day 12, animals were sacrificed and ascitic fluid was collected from peritoneal cavity of each mouse for the evaluation of tumor growth. Percent tumor growth inhibition was calculated based on the total number of tumor cells present in the peritoneal cavity as on day 12 of the experiment using the following formula.

What does the source list for `O=C(Nc1nc2ccc([N+](=O)[O-])cc2s1)c1cccnc1Nc1cc(F)c(F)c(F)c1` [Compound 8, N3-(6-nitro-1,3-benzothiazol-2-yl)-2-[(3,4,5-trifluorophenyl)amino]-3-pyridine carboxamide]?
PARP cleavage (western blot) (PARP): highest potential; topoisomerase-II inhibition (DNA relaxation) (topoisomerase II): more potent effect relative to etoposide; also recorded: maximum inhibition; nuclear morphology (DAPI) (HL-60): fragmentatation of nuclei due to apoptosis; nuclear morphology (DAPI) (PC-3 cells): fragmentatation of nuclei due to apoptosis; also recorded: condensation and fragmentation of nuclei; Growth Inhibition (%) ([1]; 0.1 mg/kg i.p. day 1-9, read day 12): 10.98%; No. of deaths / toxicity to animals ([1]; 0.1 mg/kg i.p.): 0/7; Growth Inhibition (%) ([1]; 0.3 mg/kg i.p. day 1-9, read day 12): 53.15%; No. of deaths / toxicity to animals ([1]; 0.3 mg/kg i.p.): 0/7; Growth Inhibition (%) ([1]; 0.4 mg/kg i.p. day 1-9, read day 12): Intolerable; No. of deaths / toxicity to animals ([1]; 0.4 mg/kg i.p.): deaths of all the seven animals; No. of deaths / toxicity to animals ([1]; 0.4 mg/kg i.p., listed as Comp 8): 7/7; Growth Inhibition (%) ([1]; 0.5 mg/kg i.p. day 1-9, read day 12): Intolerable; No. of deaths / toxicity to animals ([1]; 0.5 mg/kg i.p.): 7/7; Growth Inhibition (%) ([1]; 2 mg/Kg i.p. day 1-9, read day 12): Intolerable; No. of deaths / toxicity to animals ([1]; 2 mg/Kg i.p.): 7/7; Growth Inhibition (%) ([1]; 5 mg/Kg i.p. day 1-9, read day 12): Intolerable; No. of deaths / toxicity to animals ([1]; 5 mg/Kg i.p.): 7/7; Growth Inhibition (%) ([1]; 20 mg/Kg i.p. day 1-9, read day 12): Intolerable; No. of deaths / toxicity to animals ([1]; 20 mg/Kg i.p.): 7/7
